Measurements from US9452980B2, “Substituted benzamides” (Hoffmann-La Roche Inc., priority 2009, dated 2016).
Structures can show the parent of a compound that is named as a salt. Where two headings read alike, the source gives them in different places.

What was measured:
rat TAAR1 = rat TAAR1 (Rattus norvegicus (Rat), UniProt Q923Y9); assay: Radioligand binding assay on rat TAAR1
Method in brief: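 Membranes from HEK293 cells stably expressing rat TAAR1, with Kd checked per batch by saturation. Competition with ³H-(S)-4-[(ethyl-phenyl-amino)-methyl]-4,5-dihydro-oxazol-2-ylamine, compounds 10 pM–10 μM in duplicate, 1 hr at 4 °C. Filtration then scintillation counting; nonspecific binding defined with 10 μM unlabeled ligand.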

mouse TAAR1 = mouse TAAR1 (Mus musculus (Mouse), UniProt Q923Y8); assay: Radioligand binding assay on mouse TAAR1
mouse TAAR1, sequence (Q923Y8 whole entry): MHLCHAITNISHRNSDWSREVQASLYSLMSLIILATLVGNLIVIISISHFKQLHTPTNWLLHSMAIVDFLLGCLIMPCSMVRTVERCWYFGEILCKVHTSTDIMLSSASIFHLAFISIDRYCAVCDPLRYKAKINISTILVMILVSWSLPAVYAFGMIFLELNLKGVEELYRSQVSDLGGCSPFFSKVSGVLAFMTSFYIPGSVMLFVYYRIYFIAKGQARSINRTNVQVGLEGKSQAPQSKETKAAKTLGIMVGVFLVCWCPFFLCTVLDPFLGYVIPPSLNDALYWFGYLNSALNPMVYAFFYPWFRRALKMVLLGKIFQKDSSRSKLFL
Method in brief: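 Displacement of the tritiated oxazol-2-ylamine radioligand was measured by filtration and scintillation counting after 1 h incubation at 4 °C. Test concentrations ran 10 pM–10 μM in duplicate, with 10 μM cold ligand giving nonspecific binding. The receptor source was membranes of a stable mouse TAAR1 HEK293 line.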

[1] = rat TAAR1, HEK-293 membranes, second value of cell mouse/rat, read-out: Ki (μM) rat
[2] = mouse TAAR1, HEK-293 membranes, first value of cell mouse/rat, read-out: Ki (μM) mouse

rat TAAR1, sequence (Q923Y9 whole entry): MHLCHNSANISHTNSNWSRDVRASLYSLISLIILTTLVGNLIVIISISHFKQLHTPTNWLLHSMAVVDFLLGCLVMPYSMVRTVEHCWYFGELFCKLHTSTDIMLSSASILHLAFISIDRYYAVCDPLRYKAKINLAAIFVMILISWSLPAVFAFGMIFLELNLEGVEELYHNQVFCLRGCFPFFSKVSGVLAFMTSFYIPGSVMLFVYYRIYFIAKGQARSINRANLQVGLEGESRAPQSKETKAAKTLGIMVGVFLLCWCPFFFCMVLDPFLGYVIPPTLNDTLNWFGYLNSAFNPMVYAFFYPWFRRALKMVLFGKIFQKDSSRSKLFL

Row | Structure (SMILES) | Ki (rat TAAR1; [1]) [µM] | Ki (mouse TAAR1; [2]) [µM] | further results
1 | CCCc1ccc(C(=O)Nc2ccc(C3CCCNC3)cc2)cc1 (racemic) [Example 137, (RS)—N-(4-Piperidin-3-yl-phenyl)-4-propyl-benzamide hydrochloride] | 0.0015 | 0.0062 | 
2 | O=C(Nc1ccc([C@@H]2CNCCO2)cc1)c1ccc(Cl)cc1F [Example 229, (R)-4-Chloro-2-fluoro-N-(4-(morpholin-2-yl)phenyl)benzamide hydrochloride] | 0.0019 |  | Ki (mouse TAAR1; read-out: Ki (μM) mouse): 0.0218 µM
3 | O=C(Nc1ccc(C2CCCNC2)cc1)c1ccc(OCC(F)(F)F)nc1 (racemic) [Example 178, (RS)—N-(4-(Piperidin-3-yl)phenyl)-6-(2,2,2-trifluoroethoxy)nicotinamide hydrochloride] | 0.002 | 0.0032 | 
4 | O=C(Nc1ccc(C2CNCCO2)cc1)c1ccc(Cl)cc1F (racemic) [Example 146, (RS)-4-Chloro-2-fluoro-N-(4-morpholin-2-yl-phenyl)-benzamide hydrochloride] | 0.001 |  | Ki (mouse TAAR1; read-out: Ki (μM) mouse): 0.0268 µM
5 | O=C(Nc1ccc(C2CCNC2)cc1)Oc1ccc(Cl)cc1 (racemic) [Example 23, (RS)-(4-Pyrrolidin-3-yl-phenyl)-carbamic acid 4-chloro-phenyl ester hydrochloride] |  |  | Ki (rat TAAR1): 0.0025 µM; Ki (mouse TAAR1): 0.0022 µM
6 | CCOc1ccc(C(=O)Nc2ccc(C3CNCCO3)cc2)cc1 (racemic) [Example 197, (RS)-4-Ethoxy-N-(4-(morpholin-2-yl)phenyl)benzamide hydrochloride] |  | 0.0177 | Ki (rat TAAR1; read-out: Ki (μM) rat): 0.0016 µM
7 | Cc1ccc(C(=O)Nc2ccc(C3CCNC3)cc2)cc1 (racemic) [Example 182, (RS)-4-Methyl-N-(4-(pyrrolidin-3-yl)phenyl)benzamide hydrochloride] | 0.0025 |  | Ki (mouse TAAR1; read-out: Ki (μM) mouse): 0.0253 µM
8 | Cc1cc(C(=O)Nc2ccc([C@@H]3CNCCO3)cc2)cc(Cl)n1 [Example 285, (R)-2-Chloro-6-methyl-N-(4-(morpholin-2-yl)phenyl)isonicotinamide hydrochloride] | 0.005 |  | Ki (mouse TAAR1; read-out: Ki (μM) mouse): 0.0082 µM

Second part, led by results:

Row | Ki (rat TAAR1; [1]) [µM] | Ki (mouse TAAR1; [2]) [µM] | Structure (SMILES) | further results
9 | 0.0354 | 0.0033 | O=C(Nc1ccc(C2CCNC2)cc1)c1ccc(Cl)cn1 (racemic) [Example 42, (RS)-5-Chloro-pyridine-2-carboxylic acid (4-pyrrolidin-3-yl-phenyl)-amide hydrochloride] | 
10 | 0.0087 | 0.0872 | O=C(Nc1ccc(C2CNCCO2)cc1)c1ccnc(Cl)c1 (racemic) [Example 218, (RS)-2-Chloro-N-(4-(morpholin-2-yl)phenyl)isonicotinamide hydrochloride] | 
11 | 0.0005 | 0.0055 | O=C(Nc1ccc(C2CCNCC2)cc1)c1ccc(Cl)cc1 [Example 57, 4-Chloro-N-(4-piperidin-4-yl-phenyl)-benzamide hydrochloride] | 
12 | 0.0044 | 0.0783 | O=C(Nc1ccc([C@@H]2CCCNC2)cc1)c1ccc(Br)nc1 [Example 252, (S)-6-Bromo-N-(4-(piperidin-3-yl)phenyl)nicotinamide 2,2,2-trifluoroacetate] | 
13 | 0.0007 | 0.142 | O=C(Nc1ccc(CCC2CCCN2)cc1)c1cccc(Cl)c1 (racemic) [Example 157, (RS)-3-Chloro-N-[4-(2-pyrrolidin-2-yl-ethyl)-phenyl]-benzamide] | 
14 | 0.0014 | 0.0074 | Cc1ccc(NC(=O)Nc2ccc(C3CNCCO3)cc2)cc1 (racemic) [Example 293, (RS)-1-(4-(Morpholin-2-yl)phenyl)-3-p-tolylurea hydrochloride] | 
15 | 0.0062 | 1.89 | O=C(NCc1ccc([C@@H]2CNCCO2)cc1)c1ccc(Cl)cc1 [Example 314, (R)-4-Chloro-N-(4-(morpholin-2-yl)benzyl)benzamide hydrochloride] | 
16 | 0.324 | 0.0608 | O=C(Nc1ccc(C2CNCCO2)cc1)c1csc(-c2ncccn2)n1 (racemic) [Example 290, (RS)—N-(4-(Morpholin-2-yl)phenyl)-2-(pyrimidin-2-yl)thiazole-4-carboxamide hydrochloride] | 
